The results in this text go back to patent US11214803B2, “Modulators of YAP1 expression” (Ionis Pharmaceuticals, Inc., priority 2019, dated 2022).

Strand notation (5' to 3'): a small letter for the sugar, then the base; units joined by * are phosphorothioate-linked, units joined directly phosphodiester-linked; [ ] holds rarer units or linkages, { } end groups; capitals alone tell only the bases. e = 2'-O-(2-methoxyethyl) (MOE); k = constrained ethyl (cEt); [5mC] = 5-methylcytosine; d = 2'-deoxy (DNA); m = 2'-O-methyl

One series concerns Yap1 mRNA. As to the kind of experiment: Antisense inhibition of human Yap1 in SNU-449 cells by modified oligonucleotides, single dose (Example 5, RTS36584). The format is cell-based. Particulars: Table 39; SNU-449 cells, 10,000 cells per well, free uptake, 2,000 nM oligonucleotide, approx. 48 hours; RTS36584; normalized to RIBOGREEN; Yap1 mRNA relative to untreated control. The essentials: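 SNU-449 cells were given 2,000 nM oligonucleotide by free uptake for about 48 h. Yap1 mRNA was then measured by RT-qPCR with primer probe set RTS36584, normalized to total RNA by RIBOGREEN and expressed as percent of untreated control.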
In the case of “1198417 (k[5mC]*dA*dG*dA*dT*dT*dT*dA*dG*dG*dA*kT*eG*k[5mC]*eA*kT; antisense) [Compound 1198417]”, the “YAP1 (% UTC)” value is 40 % UTC.

For “1095399 (antisense k[5mC]*dA*d[5mC]*dT*dG*dA*dG*dG*dT*dA*dT*kA*eA*k[5mC]*eT*kG) [Compound 1095399]”, the “YAP1 (% UTC)” value was 46 % UTC.

Consider “1198386 (kT*dA*dT*dA*dT*dT*dA*dG*dA*dG*dT*kA*eT*kG*eT*kG; antisense) [Compound 1198386]”, for which the “YAP1 (% UTC)” value came to 77 % UTC.

Regarding “1198434 (kT*dG*dT*dA*dA*dT*dA*dT*dT*dG*d[5mC]*kA*eA*kT*e[5mC]*kT) [Compound 1198434]”, the “YAP1 (% UTC)” value was found to be 78 % UTC.

With “1198404 (kT*dT*dT*dG*dG*dA*dA*dG*dA*dT*d[5mC]*kT*eG*kA*eA*kA) [Compound 1198404]”, the “YAP1 (% UTC)” value was found to be 55 % UTC.

Staying with this series, now noted: Table 41; SNU-449 cells, 10,000 cells per well, free uptake, 2,000 nM modified oligonucleotide, approximately 48 hours; RTS36584; normalized to RIBOGREEN; Yap1 mRNA relative to untreated control cells.
As for “1198740 (AACACTGAGGTATAAC; all C 5-methyl, sugars by position and backbone not given here; position 2 notation garbled, mixed cEt/MOE/deoxy gapmer) [Compound 1198740]”, the “YAP1 (% UTC)” value is 39 % UTC.

Turning to “1198666 (antisense kG*kT*dG*d[5mC]*dT*dT*dT*dG*dG*dA*dA*dG*kA*eT*k[5mC]*eT) [Compound 1198666]”, the “YAP1 (% UTC)” value stood at 44 % UTC.

In the case of “1198692 (antisense kT*kG*dT*dA*dA*dT*dA*dT*dT*dG*d[5mC]*dA*kA*eT*k[5mC]*eT) [Compound 1198692]”, the “YAP1 (% UTC)” value is given as 120 % UTC.

As to “1198651 (kT*kT*dA*d[5mC]*dA*dT*dT*dA*dG*dG*dA*dA*k[5mC]*eA*kA*eG; antisense) [Compound 1198651]”, the “YAP1 (% UTC)” value is 94 % UTC.

As to “1198630 (kA*kA*dT*dT*dG*dT*d[5mC]*dT*d[5mC]*dA*dT*dG*k[5mC]*e[5mC]*kT*eT; antisense) [Compound 1198630]”, the “YAP1 (% UTC)” value was 37 % UTC.

Still in this series, the particulars now being: Table 42 (separate experiment); SNU-449 cells, 10,000 cells per well, free uptake, 2,000 nM modified oligonucleotide, approximately 48 hours; RTS36584; normalized to RIBOGREEN; Yap1 mRNA relative to untreated control cells.
In the case of “1198698 (antisense kA*kA*dG*dT*dG*dT*dA*dT*dG*dT*d[5mC]*dA*kG*eA*kA*eG) [Compound 1198698]”, the “YAP1 (% UTC)” value was found to be 12 % UTC.

For “1198210 (kT*kT*dA*dG*dA*dG*dT*dA*dT*dG*dT*eG*eG*e[5mC]*kA*kA; antisense) [Compound 1198210]”, the “YAP1 (% UTC)” value amounted to 28 % UTC.

With “1198209 (kT*kA*dG*dA*dG*dT*dA*dT*dG*dT*dG*eG*e[5mC]*eA*kA*kT; antisense) [Compound 1198209]”, the “YAP1 (% UTC)” value was 45 % UTC.

As for “1198678 (antisense kA*kT*dA*dT*dG*dG*dT*dT*dT*dT*dG*dT*kG*eT*kG*eT) [Compound 1198678]”, the “YAP1 (% UTC)” value was 58 % UTC.

The series is the same for the next values; noted with them: Table 43 experiment; SNU-449 cells, 10,000 cells per well, free uptake, 2,000 nM, approximately 48 hours; RTS36584; Yap1 mRNA normalized to RIBOGREEN, relative to untreated control cells.
On to “1198266 (kT*kG*dT*dA*dT*dG*dT*d[5mC]*dA*dG*dA*eA*eG*eA*kG*kT; antisense) [Compound 1198266]”, for which the “YAP1 (% UTC)” value turned out to be 25 % UTC.

On to “1198278 (kT*kA*dA*dG*dT*dA*dA*dG*dG*dT*dT*eT*e[5mC]*e[5mC]*k[5mC]*kA; antisense) [Compound 1198278]”, for which the “YAP1 (% UTC)” value came out at 43 % UTC.

Consider “1198248 (kA*kT*dA*dT*dG*dG*dT*dT*dT*dT*dG*eT*eG*eT*kG*kT; antisense) [Compound 1198248]”, for which the “YAP1 (% UTC)” value turned out to be 64 % UTC.

As to “1198259 (kA*kA*dT*dA*dT*dT*dG*d[5mC]*dA*dA*dT*e[5mC]*eT*eG*kT*k[5mC]; antisense) [Compound 1198259]”, the “YAP1 (% UTC)” value came to 51 % UTC.

The same series, now with this note: Table 44 experiment; SNU-449 cells, 10,000 cells per well, free uptake, 2,000 nM, approximately 48 hours; RTS36584; Yap1 mRNA normalized to RIBOGREEN, relative to untreated control cells.
In the case of “1198892 (kA*kA*dT*dT*dG*dT*d[5mC]*dT*d[5mC]*dA*dT*kG*d[5mC]*k[5mC]*dT*kT) [Compound 1198892]”, the “YAP1 (% UTC)” value came to 24 % UTC.

Turning to “1198511 (kA*k[5mC]*dT*d[5mC]*dT*dT*dA*dT*dA*dT*dG*eG*kT*eT*kT*eT; antisense) [Compound 1198511]”, the “YAP1 (% UTC)” value is listed as 53 % UTC.

As to “1198516 (kA*kT*dA*dT*dT*dG*d[5mC]*dA*dA*dT*d[5mC]*eT*kG*eT*k[5mC]*eT; antisense) [Compound 1198516]”, the “YAP1 (% UTC)” value is 50 % UTC.

For “1198475 (antisense kG*kG*dT*dA*dT*dA*dA*d[5mC]*dT*dG*dG*eG*k[5mC]*eA*kA*eA) [Compound 1198475]”, the “YAP1 (% UTC)” value is reported as 25 % UTC.

Staying with this series, now noted: Table 45; Yap1 mRNA as percent of untreated control, SNU-449 cells, single dose.
On to “1198919 (A_{ks}G^{m}C_{ds}A_{ds}^{m}C_{ds}T_{ds}T_{ds}T_{ds}T_{ds}A_{ds}^{m}C_{ds}A_{ks}T_{ds}T_{ks}A_{ds}G_{k}; modified gapmer, phosphorothioate, as printed in the source, key not given here) [Compound 1198919]”, for which the “YAP1 (% UTC)” value is given as 60 % UTC.

Staying with this series, now noted: Table 46; Yap1 mRNA as percent of untreated control, SNU-449 cells, single dose.
Turning to “1198815 (antisense kT*kA*dG*dA*dG*dT*dA*dT*dG*dT*dG*kG*e[5mC]*kA*eA*kT) [Compound 1198815]”, the “YAP1 (% UT)” value worked out at 24 % UT.

In the case of “1198824 (kA*kG*dG*dT*dA*dT*dA*dA*d[5mC]*dT*dG*kG*eG*k[5mC]*eA*kA; antisense) [Compound 1198824]”, the “YAP1 (% UT)” value is recorded as 72 % UT.

Consider “1198805 (antisense kA*kT*dT*dG*dT*d[5mC]*dT*d[5mC]*dA*dT*dG*k[5mC]*e[5mC]*kT*eT*kA) [Compound 1198805]”, for which the “YAP1 (% UT)” value is given as 23 % UT.

Still in this series, the particulars now being: Table 48; Yap1 mRNA level relative to untreated control; modified oligonucleotides targeting SEQ ID NO.: 1 and 2.
On to “1198308 (kT*kT*kT*dT*dA*d[5mC]*dA*dT*dT*dA*dG*dG*kA*eA*k[5mC]*eA; antisense) [Compound 1198308]”, for which the “YAP1 (% UT)” value turned out to be 68 % UT.

With “1198299 (ATATTAGAGTATGTGG; chemistry not fully specified) [Compound 1198299]”, the “YAP1 (% UT)” value was 27 % UT.

Staying with this series, now noted: Table 49; Yap1 mRNA level relative to untreated control; modified oligonucleotides targeting SEQ ID NO.: 1 and 2.
On to “1198350 (kT*kA*kT*dG*dT*dA*dA*dT*dA*dT*dT*dG*k[5mC]*eA*kA*eT; antisense) [Compound 1198350]”, for which the “YAP1 (% UT)” value came to 83 % UT.

Turning to “1198551 (antisense kA*kG*kT*dA*dT*dG*dT*dG*dG*d[5mC]*dA*dA*kT*kA*kA*eT) [Compound 1198551]”, the “YAP1 (% UT)” value worked out at 34 % UT.

Take “1198361 (kT*kA*kA*dG*dG*dT*dT*dT*d[5mC]*d[5mC]*d[5mC]*dA*kG*eA*kT*eT; antisense) [Compound 1198361]”: the “YAP1 (% UT)” value is 39 % UT.

Still in this series, the particulars now being: Table 50; Yap1 mRNA remaining as percent of untreated control (UT), SNU-449 cells, single dose.
Turning to “1197285 (kA*kG*kA*dG*mU*dA*dT*dG*dT*dG*dG*d[5mC]*dA*kA*kT*kA; antisense) [Compound 1197285]”, the “YAP1 (% UT)” value is listed as 28 % UT.

Consider “1198602 (antisense kA*kT*kA*dT*dT*dG*d[5mC]*dA*dA*dT*d[5mC]*dT*kG*kT*k[5mC]*eT) [Compound 1198602]”, for which the “YAP1 (% UT)” value is given as 29 % UT.

On to “1197229 (antisense kG*kG*kA*dA*mA*dT*dT*dG*dT*d[5mC]*dT*d[5mC]*dA*kT*kG*k[5mC]) [Compound 1197229]”, for which the “YAP1 (% UT)” value was 21 % UT.

The series is the same for the next values; noted with them: Table 51; Yap1 mRNA remaining as percent of untreated control (UT), SNU-449 cells, single dose.
In the case of “1197248 (antisense kT*kT*kA*dA*mG*d[5mC]*dA*d[5mC]*dT*dT*dT*dT*dA*k[5mC]*kA*kT) [Compound 1197248]”, the “YAP1 (% UT)” value is 75 % UT.

For “1197309 (kG*kT*kA*dA*mU*dA*dT*dT*dG*d[5mC]*dA*dA*dT*k[5mC]*kT*kG; antisense) [Compound 1197309]”, the “YAP1 (% UT)” value was determined as 11 % UT.

Staying with this series, now noted: Table 52; Yap1 mRNA, modified oligonucleotides targeting SEQ ID NO: 1 and 2.
For “1200839 (kT*kT*kA*dT*dA*mU*dG*dG*dT*dT*dT*dT*dG*kT*kG*kT; antisense) [Compound 1200839]”, the “YAP1 (% UT)” value worked out at 44 % UT.

For the substance “1200840 (k[5mC]*kT*kT*dA*dT*mA*dT*dG*dG*dT*dT*dT*dT*kG*kT*kG; antisense) [Compound 1200840]”, the “YAP1 (% UT)” value was 48 % UT.

For the substance “1200804 (kA*kG*kG*dT*dA*mU*dA*dA*d[5mC]*dT*dG*dG*dG*k[5mC]*kA*kA; antisense) [Compound 1200804]”, the “YAP1 (% UT)” value is recorded as 44 % UT.

The series is the same for the next values; noted with them: Yap1 mRNA, percent of untreated control; modified oligonucleotides targeting SEQ ID NO: 1 and 2; Table 47.
Turning to “1197210 (antisense kA*kT*kG*dT*dA*dA*dT*dA*dT*dT*dG*d[5mC]*dA*kA*kT*k[5mC]) [Compound 1197210]”, the “YAP1 (% UT)” value is on record as 105 % UT.

Consider “1197211 (antisense kT*kA*kT*dG*dT*dA*dA*dT*dA*dT*dT*dG*d[5mC]*kA*kA*kT) [Compound 1197211]”, for which the “YAP1 (% UT)” value worked out at 80 % UT.

On to “1197182 (antisense kT*kT*kT*dT*dA*d[5mC]*dA*dT*dT*dA*dG*dG*dA*kA*k[5mC]*kA) [Compound 1197182]”, for which the “YAP1 (% UT)” value was 115 % UT.

For the substance “1198859 (kA*k[5mC]*dT*d[5mC]*dT*dT*dA*dT*dA*dT*dG*kG*eT*kT*eT*kT; antisense) [Compound 1198859]”, the “YAP1 (% UT)” value is listed as 33 % UT.

As for “1009328 (kT*kA*kT*dA*dT*dT*dA*dG*dA*dG*dT*dA*dT*kG*kT*kG; antisense) [Compound 1009328]”, the “YAP1 (% UT)” value worked out at 67 % UT.

With “1197178 (antisense kA*kA*kT*dT*dG*dT*d[5mC]*dT*d[5mC]*dA*dT*dG*d[5mC]*k[5mC]*kT*kT) [Compound 1197178]”, the “YAP1 (% UT)” value amounted to 12 % UT.
